Data reported in US20020143034A1, “Aminoalcohol derivatives and their use as beta 3 adrenergic agonists” (Fujisawa Pharmaceutical Co. Ltd., priority 1998, published 2002).

Tested on: anesthetized dog
Assay: Effect on the increase in intravesical pressure induced by carbachol in anesthetized dog
Format: in vivo
Settings: 0.32 mg/kg intra-duodenal, 30 minutes before carbachol (1.8 μg/kg); female Beagle dogs under halothane anesthesia; N = 2; Control 9.3
Protocol: Effect on the increase in intravesical pressure induced by carbachol in anesthetized dog
Female Beagle dogs weighing 8.0-15.0 kg were fasted for 24 hours and maintained under halothane anesthesia. A 12F Foley catheter was lubricated with water soluble jelly, inserted into the urethral orifice and advanced approximately 10 cm until the balloon tip was placed well inside the bladder. The balloon was then inflated with 5 ml of room air and catheter slowly withdrawn just part the first resistance that is felt at the bladder neck. Urine was completely drained out thought the catheter, and 30 ml of biological saline was infused. The catheter was connected to pressure transducer, and intravesical pressure was continuously recorded. The test compound was injected by intra-duodenal route at 30 minutes before the administration of carbachol (1.8 μg/kg).

SMILES: COc1ccc2c(Oc3ccc(C[C@@H](CO)NC[C@H](O)COc4ccccc4)cc3)ccnc2c1 [Example 78, 2(S)-2-[(2S)-2-hydroxy-3-(phenoxy)propylamino]-3-[4-(7-methoxyquinolin-4-yloxy)phenyl]propan-1-ol]
- Increase in intravesical pressure: 5.5 mmHg
